In PMC9038752, “Molecular mechanisms of bifunctional vitamin D receptor agonist-histone deacetylase inhibitor hybrid molecules in triple-negative breast cancer” (Scientific Reports, 2022):
≈ marks a conversion by molar mass, not a printed value. Values belong to the molecule of their own block, whether it stands above or below them.

Legend:
[1] = test system: 4T1 mouse model of triple negative breast cancer; design: method as in PMID 28847749; settings: aggressive 4T1 mouse model of TNBC; cited from earlier work
4TO7 cells = test: RNAseq gene expression profiling in 4TO7 cells; assay type: cell-based, mouse; settings: relative to control
Description: Cells were treated for 6 h to focus more on genes directly regulated by the VDR, or for 24 or 48 h to gain insight into longer-term effects on gene expression.
McGill Genome Centre performed a quality control before sequencing in paired-end at 50 M reads by Illumina NovaSeq 6000 S4 PE100. Sets of genes regulated in the different conditions were sent to us and downstream analysis were performed.
Table S1 and Table S2 : See Excel files with RNAseq results and analysis
48 hours prior to RNA extraction. Samples were prepared in triplicate and run on Illumina NovaSeq 6000 S4
PE100. For assessing differential gene expression for RNAseq data, the LIMMA package inR was used.
RNAseq results and statistical analyses from D, S, S+D, DK-406, and AM-193 conditions measured relative to
AM-193 for 6 or 24 hours prior to RNA extraction . Samples were prepared in triplicate and run on Illumina
NovaSeq 6000 S4 PE100. For assessing differential gene expression for RNAseq data, the LIMMA package in R was […]

purified HDAC6 = molecular target: T1, purified HDAC6 (Homo sapiens, UniProt Q9UBN7); test: Fluorogenic HDAC inhibition assay, HDAC6; assay type: biochemical; settings: purified HDAC6, fluorometric substrate
T1 construct: purchased Cayman Chemical
T1 sequence (Q9UBN7 1-1215): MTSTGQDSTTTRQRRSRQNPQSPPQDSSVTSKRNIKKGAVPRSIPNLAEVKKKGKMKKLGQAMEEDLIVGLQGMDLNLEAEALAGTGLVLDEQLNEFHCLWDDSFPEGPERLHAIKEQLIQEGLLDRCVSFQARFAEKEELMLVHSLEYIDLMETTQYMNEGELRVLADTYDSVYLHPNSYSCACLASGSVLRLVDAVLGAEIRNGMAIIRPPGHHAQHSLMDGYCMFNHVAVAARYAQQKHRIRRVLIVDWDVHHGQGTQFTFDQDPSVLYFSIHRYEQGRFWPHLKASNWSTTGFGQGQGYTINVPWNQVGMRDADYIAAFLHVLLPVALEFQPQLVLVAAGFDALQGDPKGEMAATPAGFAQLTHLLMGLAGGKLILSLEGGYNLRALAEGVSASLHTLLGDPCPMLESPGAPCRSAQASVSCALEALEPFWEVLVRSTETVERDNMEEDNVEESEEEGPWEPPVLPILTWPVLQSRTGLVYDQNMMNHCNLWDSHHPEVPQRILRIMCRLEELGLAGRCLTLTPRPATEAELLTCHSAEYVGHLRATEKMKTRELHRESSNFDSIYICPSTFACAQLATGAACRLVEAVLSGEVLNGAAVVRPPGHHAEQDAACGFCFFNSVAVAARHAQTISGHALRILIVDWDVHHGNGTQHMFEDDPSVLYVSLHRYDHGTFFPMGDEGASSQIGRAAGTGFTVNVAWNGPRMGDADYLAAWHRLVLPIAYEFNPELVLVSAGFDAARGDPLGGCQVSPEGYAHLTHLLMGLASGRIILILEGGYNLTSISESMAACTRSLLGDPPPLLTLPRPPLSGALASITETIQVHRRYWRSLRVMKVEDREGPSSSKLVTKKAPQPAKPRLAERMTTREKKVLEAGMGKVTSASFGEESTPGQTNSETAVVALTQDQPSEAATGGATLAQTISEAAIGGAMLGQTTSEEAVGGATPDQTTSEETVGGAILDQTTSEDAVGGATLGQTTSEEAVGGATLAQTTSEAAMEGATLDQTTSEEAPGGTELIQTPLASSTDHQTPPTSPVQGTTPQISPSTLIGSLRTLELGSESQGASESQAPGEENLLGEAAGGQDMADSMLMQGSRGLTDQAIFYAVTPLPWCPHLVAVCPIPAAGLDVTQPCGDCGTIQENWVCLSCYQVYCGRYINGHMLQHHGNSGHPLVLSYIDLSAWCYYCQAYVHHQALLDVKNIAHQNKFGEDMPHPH
Description: (§1) The hybrids were assessed to determine their HDACi and VDR agonist activity as well as their antiproliferative properties relative to DK-406. HDACi activity was assessed in vitro using an acetylated lysine substrate that releases a fluorescent reporter upon HDACi deacetylation and subsequent trypsin digestion. Increasing sidechain length of pyrimidine hybrids enhanced the potency of HDAC6 inhibition, with several compounds inhibiting HDAC6 with a sub-micromolar IC50, similar to that of DK-406 (Fig. 4a). […] Next, we analyzed the effects of compounds on levels of H3K9 and H3K27 acetylation in 4TO7 cells, which are controlled by class I HDACs[29],[30]. […] We also tested the capacity of analogues to induce tubulin acetylation, controlled by class II enzyme HDAC6[32], in 4TO7 cells. Based on their relative efficacy in cytotoxicity assays (see below, Fig. 5c,d), we used 10^–5 M DK-406 and 10^–6 M AM-193 for these studies.
(§2) Figure 4 (a) Results of in vitro assays for inhibition of purified HDAC2 and HDAC6 by DK-406 and heterocyclic hybrids as measured by inhibition of deacetylation of a fluorometric substrate (see Methods for details). (b–d) Left: Western blotting analysis of histone 3 lysine 9 (H3K9; b), H3K27 (c), or acetylated tubulin (d), levels in 4TO7 cells treated with ligands for 6 h. Representative western-blots are shown from at least 3 biological replicates. Right: Graphs representing the average of the replicates, bars are mean ± SD. Each condition was compared to control. *: p ≤ 0.05, **: p ≤ 0.01, ***: p ≤ 0.001, ****: p ≤ 0.0001, ns: not significant. TEXT PRINTED IN THE PICTURE: (a) DK-406: HDAC6 IC50 (μM): 0.6; HDAC2 IC50 (μM): 0.5 | (a) AM-155: HDAC6 IC50 (μM): 2.8; HDAC2 IC50 (μM): 1.7 | (a) AM-171: HDAC6 IC50 (μM): 0.5; HDAC2 IC50 (μM): 9.6 | (a) AM-172: HDAC6 IC50 (μM): 0.3; HDAC2 IC50 (μM): 7.7 | (a) AM-191: HDAC6 IC50 (μM): 1.9; HDAC2 IC50 (μM): 8.1 | (a) AM-192: HDAC6 IC50 (μM): 0.5; HDAC2 IC50 (μM): 6.5 | (a) AM-193: HDAC6 IC50 (μM): 0.3; HDAC2 IC50 (μM): 7.2
(§3) Purified HDAC2 and HDAC6 were purchased from Cayman Chemical. Boc-Lys(Ac)-7-amino-4-methylcoumarin (BocLys(Ac)-AMC) was used as substrate for the HDAC assays. Substrate solution was prepared as follow: Boc(Lys-Ac)-AMC was dissolved in DMSO and diluted with HDAC buffer (15 mM tris–HCl [pH 8.1], 250 μM EDTA, 250 mM NaCl, 10% glycerol) to give 1 mM solutions containing 1.7% DMSO. Trypsin was used to stop the reaction, releasing free AMC. The trypsin solution was prepared as follow: trypsin was dissolved in HDAC buffer to give a concentration of 10 mg/mL. Release of AMC was monitored by measuring the fluorescence at 460 nm (lex = 390 nm) with a microplate reader (SpectraMax Gemini from Molecular Devices) at 37 °C. The AMC signals were recorded against a blank with buffer, substrate and trypsin but without the enzyme. All experiments were carried out at least in triplicate.
(§4) For HDAC inhibition assays, inhibitor diluted in 50 μL of HDAC buffer was mixed with 10 μL of diluted enzyme solution in HDAC buffer at room temperature. The HDAC reaction was started by adding 40 μL of substrate solution in HDAC buffer followed by 60 min of incubation with stirring at 37 °C. The reaction was stopped by adding 100 μL of trypsin solution. After a 30 min incubation with stirring at 37 °C, the release of AMC was monitored by measuring the fluorescence.

purified HDAC2 = molecular target: T2, purified HDAC2 (Homo sapiens, UniProt Q92769); test: Fluorogenic HDAC inhibition assay, HDAC2; assay type: biochemical; settings: purified HDAC2, fluorometric substrate
T2 construct: purchased Cayman Chemical
T2 sequence (Q92769 whole entry): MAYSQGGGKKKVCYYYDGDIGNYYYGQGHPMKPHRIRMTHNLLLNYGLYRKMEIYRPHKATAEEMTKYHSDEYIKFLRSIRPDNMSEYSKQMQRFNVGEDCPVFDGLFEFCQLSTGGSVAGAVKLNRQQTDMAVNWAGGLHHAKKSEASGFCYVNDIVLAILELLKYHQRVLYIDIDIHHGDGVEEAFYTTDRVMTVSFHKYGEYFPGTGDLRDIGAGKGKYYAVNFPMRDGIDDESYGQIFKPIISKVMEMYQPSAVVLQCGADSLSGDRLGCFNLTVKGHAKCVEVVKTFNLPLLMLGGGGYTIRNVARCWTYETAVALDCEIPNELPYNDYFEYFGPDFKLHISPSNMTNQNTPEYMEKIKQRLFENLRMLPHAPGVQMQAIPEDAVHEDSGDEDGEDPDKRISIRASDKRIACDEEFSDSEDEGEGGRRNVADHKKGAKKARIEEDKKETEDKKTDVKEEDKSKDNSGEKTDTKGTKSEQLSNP
Description: as §1, §2, §3, §4

[2] = test system: 60 human cell line panel of the National Cancer Institute; design: method as in PMID 26048026; settings: cell lines from a broad range of tumors, including TNBCs; cited from earlier work
[3] = Aqueous solubility after sonication; assay type: physicochemical; settings: water; after sonication for 30 min
Description: The synthesis of the B-ring series mirrored that of the A-ring series producing B-ring hybrids AM-191 (n = 1, 27a), AM-192 (n = 3, 27b), and AM-193 (n = 5, 27c) in 9 steps (Fig. 3).

[4] = 6 h, RNAseq Supplemental table 1
[5] = 6 h, RNAseq Supplemental table 2, 1 µM AM-193, 10 µM DK-406, 100 nM 1,25D and SAHA
[6] = 24 h, RNAseq Supplemental table 2, 1 µM AM-193, 10 µM DK-406, 100 nM 1,25D and SAHA
[7] = 48 h, RNAseq Supplemental table 1

IC50 (purified HDAC6): 0.3 µM
IC50 (purified HDAC2): 7.7 µM
SMILES: CCC(CC)(c1ccc(OCC(O)C(C)(C)C)c(C)c1)c1ccc(OCCCCCC(=O)NO)cn1 (stereo not shown) [AM-172]

IC50 (purified HDAC6): 1.9 µM
IC50 (purified HDAC2): 8.1 µM
SMILES: CCC(CC)(c1ccc(OCC(=O)NO)cc1)c1ccc(OCC(O)C(C)(C)C)c(C)n1 (stereo not shown) [AM-191]

IC50 (purified HDAC6): 0.5 µM
IC50 (purified HDAC2): 6.5 µM
SMILES: CCC(CC)(c1ccc(OCCCC(=O)NO)cc1)c1ccc(OCC(O)C(C)(C)C)c(C)n1 (stereo not shown) [AM-192]

solubility at 30 min [3]: 1.91 µg/mL (≈ 3.82 µM)
SMILES: CCC(CC)(c1ccc(OCCCCCC(=O)NO)cc1)c1ccc(OCC(O)C(C)(C)C)c(C)c1 (stereo not shown) [DK-367]
tumor growth and metastasis [1]: reduced tumor growth and metastasis
antiproliferative activities [2]: displayed antiproliferative activities

More lines, now with the values behind:

SMILES: C=C1/C(=C\C=C2/CCC[C@]3(C)[C@@H]([C@H](C)CCCC(C)(C)O)CC[C@@H]23)C[C@@H](O)C[C@@H]1O [1,25D, 1α,25-Dihydroxyvitamin D3, reference compound]
tumor growth and metastasis [1]: inactive alone or in combination
Aaas 6h Log Fold (4TO7 cells; [4]): -1.012
Aacs 6h Log Fold (4TO7 cells; [4]): 1.070
Aaed1 6h Log Fold (4TO7 cells; [4]): -1.076
Aagab 6h Log Fold (4TO7 cells; [4]): 1.036
Aak1 6h Log Fold (4TO7 cells; [4]): -1.011
Aaas 6h Log Fold (4TO7 cells; [5]): -0.038
Aacs 6h Log Fold (4TO7 cells; [5]): 0.025
Aagab 6h Log Fold (4TO7 cells; [5]): 0.115
Aak1 6h Log Fold (4TO7 cells; [5]): 0.014
Aamdc 6h Log Fold (4TO7 cells; [5]): -0.075
Aaas 24h Log Fold (4TO7 cells; [6]): -0.054
Aacs 24h Log Fold (4TO7 cells; [6]): 0.127
Aagab 24h Log Fold (4TO7 cells; [6]): 0.138
Aak1 24h Log Fold (4TO7 cells; [6]): 0.00666
Aamdc 24h Log Fold (4TO7 cells; [6]): -0.360
Aaas 48h Log Fold (4TO7 cells; [7]): -1.436
Aacs 48h Log Fold (4TO7 cells; [7]): 1.516
Aaed1 48h Log Fold (4TO7 cells; [7]): -1.677
Aagab 48h Log Fold (4TO7 cells; [7]): 1.592
Aak1 48h Log Fold (4TO7 cells; [7]): 1.091

SMILES: O=C(CCCCCCC(=O)Nc1ccccc1)NO [SAHA, Suberoylanilide hydroxamic acid, reference compound]
tumor growth and metastasis [1]: inactive alone or in combination
